Values quoted from earlier work in patent publication US9541834B2, “Ionic thermal acid generators for low temperature applications” (Rohm and Haas Electronic Materials LLC, priority 2012, dated 2017).

details: pKa of conjugate acid (BH)+ of the base of the TAG, aqueous solution, about room temperature

Compound | pKa (base)
3-Fluoropyridinium perfluorobutanesulfonate [3-Fluoropyridinium PFBuS] | 2.8
N.O=S(=O)(O)C(F)(F)C(F)(F)C(F)(F)C(F)(F)F [Ammonium PFBuS, Ammonium perfluorobutanesulfonate] | 9.25
Pyridazinium perfluorobutanesulfonate [Pyridazinium PFBuS] | 3.1
